For orientation: MIC means the least concentration at which growth counts as inhibited. Read a high MIC as weaker potency.

Holding throughout (format): functional
Experiment [1] concerns Mycobacterium tuberculosis. Kind of experiment: Antimycobacterial activity against mono-rifampin-resistant Mycobacterium tuberculosis TN675.
Experiment [2] concerns Mycobacterium tuberculosis. Kind of experiment: Antimycobacterial activity against mono-rifampin-resistant Mycobacterium tuberculosis TN994.
For experiment [3], the system named is Mycobacterium tuberculosis. In words: Antimycobacterial activity against multidrug-resistant Mycobacterium tuberculosis TN576.
Experiment [4] relates to Mycobacterium tuberculosis. Kind of experiment: Antimycobacterial activity against multidrug-resistant Mycobacterium tuberculosis TN702.
For experiment [5], the system named is Mycobacterium tuberculosis. Kind of experiment: Antimycobacterial activity against multidrug-resistant Mycobacterium tuberculosis TN715.
The subject of experiment [6] is Mycobacterium tuberculosis. In words: Antimycobacterial activity against multidrug-resistant Mycobacterium tuberculosis TN768.
For experiment [7], the system named is Mycobacterium tuberculosis. In words: Antimycobacterial activity against multidrug-resistant Mycobacterium tuberculosis TN772.
Experiment [8] relates to Mycobacterium tuberculosis. Kind of experiment: Antimycobacterial activity against multidrug-resistant Mycobacterium tuberculosis TN1195.
The test system of experiment [9] is Mycobacterium tuberculosis. In words: Antimycobacterial activity against multidrug-resistant Mycobacterium tuberculosis TN1314.
Experiment [10] deals with Mycobacterium tuberculosis. Kind of experiment: Antimycobacterial activity against multidrug-resistant Mycobacterium tuberculosis TN1618.
Experiment [11] concerns Mycobacterium tuberculosis. In words: Antimycobacterial activity against multidrug-resistant Mycobacterium tuberculosis TN1811.
In experiment [12] the test system is Mycobacterium tuberculosis. In words: Antimycobacterial activity against multidrug-resistant Mycobacterium tuberculosis TN2557.
The subject of experiment [13] is Mycobacterium tuberculosis. In words: Antimycobacterial activity against multidrug-resistant Mycobacterium tuberculosis TN565.

SMILES strings stand for the structures. ≈ marks a conversion by molar mass, not a printed value.

Turning to `NNC(=O)c1ccncc1` [ISONIAZID], the minimal inhibitory concentration (MIC) in [1] and in experiment [2] was 0.03 µg/mL (≈ 0.219 µM) each time.

Consider `O=[N+]([O-])c1cn2c(n1)OC[C@@H](OCc1ccc(OC(F)(F)F)cc1)C2` [PRETOMANID], for which the MIC in experiment [3] stood at 0.06 µg/mL (≈ 0.167 µM); in [4], 0.25 µg/mL (≈ 0.696 µM); in experiment [5], 0.06 µg/mL (≈ 0.167 µM); in experiment [6], 0.06 µg/mL (≈ 0.167 µM); in experiment [7] it was 0.03 µg/mL (≈ 0.0835 µM); in experiment [8], 0.25 µg/mL (≈ 0.696 µM). For the same compound, the MIC in experiment [9] is 0.03 µg/mL (≈ 0.0835 µM); in [10], 0.06 µg/mL (≈ 0.167 µM); in [11] it was 0.03 µg/mL (≈ 0.0835 µM); in experiment [12], 0.13 µg/mL (≈ 0.362 µM); in experiment [1], 0.015 µg/mL (≈ 0.0418 µM); in experiment [2], 0.03 µg/mL (≈ 0.0835 µM). In experiment [13], this compound gave an MIC of 0.06 µg/mL (≈ 0.167 µM).

The values are drawn from ChEMBL document CHEMBL1143399, “A small-molecule nitroimidazopyran drug candidate for the treatment of tuberculosis” (Nature, 2000).
